The subject of data set [1] is gluten peptide-specific T cells in PBMC from HLA-DQ2+ celiac disease donors. The experiment in a line: IFNγ ELISpot of PBMC collected on day 6 after oral gluten challenge. It counts as cell-based, human. As to conditions: for donors with IFNγ ELISpot response: 9 HLA DQ2 celiac disease donors, PBMC day 6 after wheat gluten challenge, 17mer and 33mer at 5 μM; for requirement for deamidation for T cell stimulation / dominance according to the grain consumed: second round libraries; for relative T-cell stimulatory activity: PBMC after wheat challenge, tTG pre-treated or glutamate substituted; for activity relative to α-gliadin p57-73 QE65: pre-treated with tTG or with glutamate at position 9, 25 μg/ml, mean±SEM, n=5 donors; for dominance according to the grain consumed: wheat, barley or rye gluten challenge.

Data set [2] in a line: Pharmacokinetics after bolus intradermal injection in an adult rat. It counts as in vivo. Particulars: rat, in vivo, 0.9 mg; for half-life: T1/2 half life. Here is the method: To improve their chemical stability and increase resistance to exopeptidases, peptides were synthesised as acetate salts of “capped” N-pyroglutamate, C-amide: NPL001 (SEQ ID NO:228), NPL002 (SEQ ID NO:229) and NPL003 (SEQ ID NO:230) 15mers or 16mers with glutamate at sites predicted to be deamidated by tTG. Indeed, capping extended the half-lives of peptides from 10-12 minutes for free peptides: NPL033, NPL038, and NPL034 (SEQ ID NOs:13, 320 and 321) after bolus intradermal injection of 0.9 mg in 0.1 ml in an adult rat to 26-28 minutes with N-pyroglutamate and C-amidation (SEQ ID NOs:228, 229 and 230) or 19-24 minutes with N-acetylation and C-amidation (SEQ ID NOs:231, 232, and 233), (see Table 4).

In data set [3] the test system is gluten peptide-specific T cells in PBMC from HLA-DQ2+ celiac disease donors. As to conditions: day-6 PBMC, cited from earlier work.

Square brackets hold non-standard residues; d marks the D form. Peptide text beside a SMILES is read from it. pGlu = O=C1CC[C@@H](C(=O)O)N1

For “15mer encompassing deamidated DQ2-γ-IV: deamidated 15mer encompassing the epitope DQ2-γ-IV SQPEQEFPQ reported for intestinal T cell clones [reference compound]”, the “donors with IFNγ ELISpot response” value in data set [1] is recorded as “One”.

In the case of `NC(=O)CC[C@H](NC(=O)[C@H](Cc1c[nH]c2ccccc12)NC(=O)[C@@H]1CCCN1C(=O)[C@H](Cc1ccccc1)NC(=O)[C@@H]1CCCN1C(=O)[C@H](CCC(N)=O)NC(=O)[C@H](CCC(=O)O)NC(=O)[C@@H]1CCCN1C(=O)[C@H](CCC(N)=O)NC(=O)[C@@H]1CCCN1C(=O)[C@H](Cc1ccccc1)NC(=O)[C@@H]1CCCN1C(=O)[C@H](CCC(N)=O)NC(=O)[C@@H]1CCC(=O)N1)C(=O)N1CCC[C@H]1C(N)=O` [NPL002, pyroEQPFPQPEQPFPWQP-amide] ([pGlu]QPFPQPEQPFPWQP-NH2), the “bioactivity after lysine-substitution of the central PQPEQPF sequence” value in data set [1] (32 μg/ml, after wheat (n=7), barley (n=9) or rye challenge (n=10)) is on record as “abolished the bioactivity”. Moreover, in data set [1] (PBMC from HLA DQA1*05 DQB1*02 homozygotes and heterozygotes, data not shown), the “effect of anti-HLA-DQ / -DR preincubation on IFNγ ELISpot response” value is reported as “anti-HLA-DQ but not -DR abolished”. Besides, in data set [2], the “AUC area under the curve (bioavailability)” value (“AUC area under the curve” for short) is “AUC 81514”, the T1/2 half life entry is given as “T1/2 27.18 minutes” and the half-life was 26 to 28 min.

Compound `CC[C@H](C)[C@H](NC(=O)[C@@H]1CCCN1C(=O)[C@H](CCC(N)=O)NC(=O)[C@H](CCC(=O)O)NC(=O)[C@@H]1CCCN1C(=O)[C@@H]1CCC(=O)N1)C(=O)N1CCC[C@H]1C(=O)N[C@@H](CCC(=O)O)C(=O)N[C@@H](CCC(N)=O)C(=O)N1CCC[C@H]1C(=O)N[C@@H](CCC(N)=O)C(=O)N1CCC[C@H]1C(=O)N[C@@H](Cc1ccc(O)cc1)C(=O)N1CCC[C@H]1C(=O)N[C@@H](CCC(N)=O)C(=O)N[C@@H](CCC(N)=O)C(N)=O` [NPL003, pyroEPEQPIPEQPQPYPQQ-amide] ([pGlu]PEQPIPEQPQPYPQQ-NH2) had a half-life in data set [2] of 26 to 28 min.

As for `CC(=O)N[C@@H](CCC(N)=O)C(=O)N[C@@H](CC(C)C)C(=O)N[C@@H](CCC(N)=O)C(=O)N1CCC[C@H]1C(=O)N[C@@H](Cc1ccccc1)C(=O)N1CCC[C@H]1C(=O)N[C@@H](CCC(N)=O)C(=O)N1CCC[C@H]1C(=O)N[C@@H](CCC(=O)O)C(=O)N[C@@H](CC(C)C)C(=O)N1CCC[C@H]1C(=O)N[C@@H](Cc1ccc(O)cc1)C(=O)N1CCC[C@H]1C(=O)N[C@@H](CCC(N)=O)C(=O)N1CCC[C@H]1C(=O)N[C@@H](CCC(N)=O)C(N)=O` [NPL030, Ac-QLQPFPQPELPYPQPQ-amide] (Ac-QLQPFPQPELPYPQPQ-NH2), in data set [2], the “AUC area under the curve” value is reported as “AUC 43474”, the T1/2 half life entry is recorded as “T1/2 19.4 minutes” and the half-life lay within 19 to 24 min.

For `CC(=O)N[C@@H](CCC(N)=O)C(=O)N[C@@H](CCC(N)=O)C(=O)N1CCC[C@H]1C(=O)N[C@@H](Cc1ccccc1)C(=O)N1CCC[C@H]1C(=O)N[C@@H](CCC(N)=O)C(=O)N1CCC[C@H]1C(=O)N[C@@H](CCC(=O)O)C(=O)N[C@@H](CCC(N)=O)C(=O)N1CCC[C@H]1C(=O)N[C@@H](Cc1ccccc1)C(=O)N1CCC[C@H]1C(=O)N[C@@H](Cc1c[nH]c2ccccc12)C(=O)N[C@@H](CCC(N)=O)C(=O)N1CCC[C@H]1C(N)=O` [NPL031, Ac-QQPFPQPEQPFPWQP-amide] (Ac-QQPFPQPEQPFPWQP-NH2), in data set [2], the “AUC area under the curve” value was “AUC 80263”, the T1/2 half life result was “T1/2 22.9 minutes” and the half-life was 19 to 24 min.

As for `CC[C@H](C)[C@H](NC(=O)[C@@H]1CCCN1C(=O)[C@H](CCC(N)=O)NC(=O)[C@H](CCC(=O)O)NC(=O)[C@@H]1CCCN1C(=O)[C@H](Cc1ccccc1)NC(C)=O)C(=O)N1CCC[C@H]1C(=O)N[C@@H](CCC(=O)O)C(=O)N[C@@H](CCC(N)=O)C(=O)N1CCC[C@H]1C(=O)N[C@@H](CCC(N)=O)C(=O)N1CCC[C@H]1C(=O)N[C@@H](Cc1ccc(O)cc1)C(=O)N1CCC[C@H]1C(=O)N[C@@H](CCC(N)=O)C(=O)N[C@@H](CCC(N)=O)C(N)=O` [NPL032, Ac-FPEQPIPEQPQPYPQQ-amide] (Ac-FPEQPIPEQPQPYPQQ-NH2), in data set [2], the “AUC area under the curve” value is “AUC 8206”, the T1/2 half life result is on record as “T1/2 12.5 minutes” and the half-life is 19 to 24 min.

On to `CC(C)C[C@H](NC(=O)[C@H](CCC(=O)O)NC(=O)[C@@H]1CCCN1C(=O)[C@H](CCC(N)=O)NC(=O)[C@@H]1CCCN1C(=O)[C@H](Cc1ccccc1)NC(=O)[C@@H]1CCCN1C(=O)[C@H](CCC(N)=O)NC(=O)[C@@H](N)CC(C)C)C(=O)N1CCC[C@H]1C(=O)N[C@@H](Cc1ccc(O)cc1)C(=O)N1CCC[C@H]1C(=O)N[C@@H](CCC(N)=O)C(=O)N1CCC[C@H]1C(=O)N[C@@H](CCC(N)=O)C(=O)O` [NPL033, LQPFPQPELPYPQPQ] (H-LQPFPQPELPYPQPQ-OH), for which, in data set [2], the “AUC area under the curve” value is on record as “AUC 2618” and the half-life was in the range of 10 to 12 min.

Take `CC[C@H](C)[C@H](NC(=O)[C@@H]1CCCN1C(=O)[C@H](CCC(N)=O)NC(=O)[C@H](CCC(=O)O)NC(=O)[C@@H]1CCCN1C(=O)[C@@H](N)Cc1ccccc1)C(=O)N1CCC[C@H]1C(=O)N[C@@H](CCC(=O)O)C(=O)N[C@@H](CCC(N)=O)C(=O)N1CCC[C@H]1C(=O)N[C@@H](CCC(N)=O)C(=O)N1CCC[C@H]1C(=O)N[C@@H](Cc1ccc(O)cc1)C(=O)N1CCC[C@H]1C(=O)N[C@@H](CCC(N)=O)C(=O)N[C@@H](CCC(N)=O)C(=O)O` [NPL034, FPEQPIPEQPQPYPQQ] (H-FPEQPIPEQPQPYPQQ-OH): the half-life in data set [2] lay in the range of 10 to 12 min.

For `NC(=O)CC[C@H](NC(=O)[C@@H]1CCCN1)C(=O)N[C@@H](CCC(N)=O)C(=O)N1CCC[C@H]1C(=O)N[C@@H](Cc1ccccc1)C(=O)N1CCC[C@H]1C(=O)N[C@@H](CCC(N)=O)C(=O)N1CCC[C@H]1C(=O)N[C@@H](CCC(=O)O)C(=O)N[C@@H](CCC(N)=O)C(=O)N1CCC[C@H]1C(=O)N[C@@H](Cc1ccccc1)C(=O)N1CCC[C@H]1C(=O)N[C@@H](Cc1c[nH]c2ccccc12)C(=O)N[C@@H](CCC(N)=O)C(=O)N1CCC[C@H]1C(=O)O` [NPL038, PQQPFPQPEQPFPWQP] (H-PQQPFPQPEQPFPWQP-OH), in data set [2], the “AUC area under the curve” value is recorded as “AUC 22393”, the T1/2 half life result is recorded as “T1/2 13.2 minutes” and the half-life is 10 to 12 min.

Turning to GQGQSGYYPTSPQQSG (W29), in data set [1], the “requirement for deamidation for T cell stimulation” value (“requirement for deamidation” below) is on record as “Exceptions to the requirement for deamidation”.

On to “LQLQPFPQPELPYPQPELPYPQPELPYPQPQPF (deamidated alpha2-gliadin 56-88) [33mer, reference compound]”, for which the “donors with IFNγ ELISpot response” value in data set [1] was determined as 7 donors.

Consider PGQGQSGYYPTSPQQS (W24), for which the “requirement for deamidation” value in data set [1] is “Exceptions to the requirement for deamidation”.

“PQPQPFLPELPYPQPQS (gluten derived peptide) [SEQ ID NO:26]”: in data set [1], the “relative T-cell stimulatory activity” value is listed as “almost as active as 17mers encompassing DQ2-α-II”.

With “PQPQPFLPQLPYPQPQS (gluten derived peptide) [W09]”, the “relative T-cell stimulatory activity” value in data set [1] was “almost as active as 17mers encompassing DQ2-α-II”.

For “PQQPFPQPELPFPQQSE (deamidated AAG17702 (141-157)) [SEQ ID NO:29]”, the “activity relative to α-gliadin p57-73 QE65” value in data set [1] is 32±6%.

Regarding PQQPFPQPQLPFPQQSE (AAG17702 (141-157)), the “activity relative to α-gliadin p57-73 QE65” value in data set [1] was 32±6%.

For the compound PQQPIPEQPQPYPQQP (B08-E7), the “dominance according to the grain consumed” value (“dominance according” for short) in data set [1] is reported as “only after barley gluten challenge”.

Turning to QGQPGYYPTSPQQIGQ (W22), the “requirement for deamidation” value in data set [1] is recorded as “Exceptions to the requirement for deamidation”.

With QGQQGYYPISPQQSGQ (W21), the “requirement for deamidation” value in data set [1] was “Exceptions to the requirement for deamidation”.

Regarding “QLQPFPQPELPYPQPQL (variant of alpha-gliadin p57-73 QE65) [SEQ ID NO:46]”, the “donors with IFNγ ELISpot response” value in data set [1] came out at 7 donors.

On to “QLQPFPQPELPYPQPQP (gluten derived peptide) [SEQ ID NO:225]”, for which the “dominance according” value in data set [1] was “dominant only after wheat gluten challenge”.

Regarding “QLQPFPQPELPYPQPQS (alpha-gliadin p57-73 QE65) [α-gliadin p57-73 QE65]”, in data set [3] (3/17 donors), the “IFNγ ELISpot response relative to tTG-treated gliadin in 3/17 donors” value was “less than 5%”. Also, the “Median IFNγ ELISpot response as percentage of that to tTG-treated gliadin (500 μg/ml)” value in data set [3] (n=17, range 0-155%) is recorded as 51%.

Regarding QPEQPFPQPEQPFPWQP (W03-E7), in data set [1], the “relative T-cell stimulatory activity” value is on record as “equivalent in bioactivity” and the “dominance according” value is “universal dominant T cell stimulatory peptide in gluten”.

Regarding “QPFPQQPEQIIPQQ (gluten derived peptide) [SEQ ID NO:323]”, the “dominance according” value in data set [1] is on record as “only after rye gluten challenge”.

Consider “QPQQPFPQPEQPFPWQP (Q3 E10 variant) [SEQ ID NO:54]”, for which the “relative T-cell stimulatory activity” value in data set [1] was “optimal immunogenicity”.

For QYEVIRSLVRTLPNM (QYEVIRSLVLRTLPNM; W36), the “requirement for deamidation” value in data set [1] is “Exceptions to the requirement for deamidation”.

Source of the values: patent US9464120B2, “Compositions for treatment of celiac disease” (ImmusanT, Inc., priority 2008, dated 2016).
